One assay concerns the target T1, recombinant Aurora A (Homo sapiens, UniProt O14965).
T1 construct: purchased Upstate, Lake Placid, N.Y
T1 sequence (O14965 1-403): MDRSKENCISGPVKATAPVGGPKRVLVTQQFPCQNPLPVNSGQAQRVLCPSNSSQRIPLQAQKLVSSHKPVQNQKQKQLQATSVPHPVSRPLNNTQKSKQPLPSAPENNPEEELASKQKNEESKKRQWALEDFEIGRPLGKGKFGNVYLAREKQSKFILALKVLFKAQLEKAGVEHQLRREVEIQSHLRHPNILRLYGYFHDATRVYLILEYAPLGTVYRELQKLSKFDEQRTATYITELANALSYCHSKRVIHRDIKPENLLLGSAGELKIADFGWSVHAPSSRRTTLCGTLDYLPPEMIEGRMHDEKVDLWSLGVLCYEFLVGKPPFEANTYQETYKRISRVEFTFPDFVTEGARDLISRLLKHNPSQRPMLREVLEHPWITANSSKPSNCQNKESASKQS
Nature of the assay: Aurora A (Aurora 2) inhibition assay, Z'-Lyte kinase assay. The class given is biochemical. As to conditions: ATP 10 μM, 1 h. The essentials: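 Z'-Lyte FRET assay: Aurora A (200-500 ng/mL final), Ser/Thr 1 peptide (2 μM) and ATP (10 μM) in 50 mM HEPES pH 7.5, 10 mM MgCl2, 5 mM EGTA, 0.05% Brij-35, 2 mM DTT, 1 h at room temperature. Coumarin/fluorescein emission ratio converted to percent phosphorylation; dose-response curves plotted.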

In assay [1] the target is T2, N-terminal His6-tagged recombinant human KDR, residues 790-end (Homo sapiens, UniProt P35968).
T2 construct: recombinant human KDR, residues 790-end; His6 (N); purchased Upstate USA Inc, 706 Forest Street, Charlottesville, Va
T2 sequence (P35968 790-1356 limits assumed): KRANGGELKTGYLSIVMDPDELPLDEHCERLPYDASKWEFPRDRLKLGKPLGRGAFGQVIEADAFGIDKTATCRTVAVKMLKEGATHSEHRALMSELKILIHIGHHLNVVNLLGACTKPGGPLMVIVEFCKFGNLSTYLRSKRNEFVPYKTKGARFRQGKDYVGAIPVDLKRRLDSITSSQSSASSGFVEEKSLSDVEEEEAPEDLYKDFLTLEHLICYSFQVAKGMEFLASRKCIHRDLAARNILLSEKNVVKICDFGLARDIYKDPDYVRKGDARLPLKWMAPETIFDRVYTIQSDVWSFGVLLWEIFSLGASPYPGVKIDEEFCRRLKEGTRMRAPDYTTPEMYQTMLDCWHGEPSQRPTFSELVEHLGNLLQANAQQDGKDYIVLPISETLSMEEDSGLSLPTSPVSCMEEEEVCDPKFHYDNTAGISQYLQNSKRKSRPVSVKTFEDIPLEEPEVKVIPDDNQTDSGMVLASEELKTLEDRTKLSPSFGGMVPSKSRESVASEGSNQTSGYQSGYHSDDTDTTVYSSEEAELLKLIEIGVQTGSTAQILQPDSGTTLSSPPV
Nature of the assay: KDR kinase inhibition assay (33P-ATP filter assay). The class given is biochemical. The essentials:
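His6-tagged human KDR (residues 790-end, 5-10 mU) with 0.33 mg/mL myelin basic protein in 8 mM MOPS pH 7.0, 0.2 mM EDTA, 10 mM magnesium acetate and [γ-33P]ATP; 40 min at room temperature. Stopped with phosphoric acid, filter-bound 33P counted; inhibition relative to no-inhibitor controls.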

A further assay concerns HCT116 cells. Nature of the assay: Whole cell cytotoxicity assay, Sulforhodamine B. The class given is cell-based. As to conditions: Homo sapiens, HCT-116, HCT116, 96 hours incubation, SRB; for GI50: read-out: GI50 HCT116 cell growth; for IC50: read-out: IC50 values in this assay (HCT116 cell growth). In short, it runs like this:
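HCT116 cells (500/well) in DMEM/10% FBS/2 mM glutamine were preincubated 24 h, then exposed to compound for 96 h at 37 °C, 5% CO2, in duplicate. Cells were fixed with TCA and stained with sulforhodamine B (A570). GI50, TGI and LC50 were derived relative to a time-zero plate and an untreated control.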

Where [2] appears, read: group with IC50 greater than 100 nM.

Bounds are passed on as bounds.

As usually defined, the IC50 is the concentration that inhibits the measured activity by half. A word on the GI50: it is the concentration giving 50% growth inhibition. As for `Cc1cc(C)cc(-c2nc(Nc3cc(C)[nH]n3)cc(N3CCN(C)CC3)n2)c1` [Example 169, 2-(3,5-dimethylphenyl)-N-(5-methyl-1H-pyrazol-3-yl)-6-(4-methylpiperazin-1-yl)pyrimidin-4-amine], the IC50 (on recombinant Aurora A; in assay [1] (40 minutes at room temperature)) was ≤ 100 nM throughout. Further, the GI50 in the assay with HCT116 cells was ≤ 1000 nM.
In the case of `Cc1cccc(-c2nc(Nc3cc(C)[nH]n3)cc(N(C)CCN(C)C)n2)c1` [Compound 52, N^4-(2-(dimethylamino)ethyl)-N^4-methyl-N^6-(5-methyl-1H-pyrazol-3-yl)-2-m-tolylpyrimidine-4,6-diamine], the IC50 (on recombinant Aurora A (setting [2]); in assay [1] (setting [2])) was ≤ 1000 nM throughout. In addition, in the assay with HCT116 cells, the GI50 was ≤ 1000 nM.
`Cc1cc(Nc2cc(N3CCN(C)CC3)nc(-c3cccc4ccoc34)n2)n[nH]1` [Example 203, 2-(benzofuran-7-yl)-N-(5-methyl-1H-pyrazol-3-yl)-6-(4-methylpiperazin-1-yl)pyrimidin-4-amine]: the figures for the IC50 (on recombinant Aurora A; in assay [1] (40 minutes at room temperature); with HCT116 cells) were ≤ 100 nM, ≤ 100 nM and 1000 to 10000 nM, respectively.
Take `Cc1cc(Nc2cc(N3CCN(C)CC3)nc(-c3ccc4ccccc4c3)n2)n[nH]1` [Example 135, N-(5-methyl-1H-pyrazol-3-yl)-6-(4-methylpiperazin-1-yl)-2-(naphthalen-2-yl)pyrimidin-4-amine]: the IC50 (at recombinant Aurora A; in assay [1] (40 minutes at room temperature)) was ≤ 100 nM throughout. Besides, the GI50 in the assay on HCT116 cells is ≤ 1000 nM.
Turning to `Cc1cc(Nc2cc(N3CCN(C)CC3)nc(-c3ccc4c(c3)OCO4)n2)n[nH]1` [Example 139, 2-(benzo[d][1,3]dioxol-5-yl)-N-(5-methyl-1H-pyrazol-3-yl)-6-(4-methylpiperazin-1-yl)pyrimidin-4-amine], the IC50 (on recombinant Aurora A; in assay [1] (40 minutes at room temperature)) was ≤ 100 nM throughout. Moreover, the GI50 in the assay with HCT116 cells is ≤ 1000 nM.
As for `Cc1cc(Nc2cc(NC3CCOCC3)nc(-c3cc4ccccc4n3C)n2)n[nH]1` [Compound 7, N^4-(tetrahydro-2H-pyran-4-yl)-2-(1-methyl-1H-indol-2-yl)-N^6-(5-methyl-1H-pyrazol-3-yl)pyrimidine-4,6-diamine], the IC50 is ≤ 1000 nM at recombinant Aurora A (setting [2]), ≤ 1000 nM in assay [1] (setting [2]) and 1000 to 10000 nM in the assay with HCT116 cells.
Take `COCCN(C)c1cc(Nc2cc(C)[nH]n2)nc(-c2cc(F)ccc2F)n1` [Example 184, 2-(2,5-difluorophenyl)-N^4-(2-methoxyethyl)-N^4-methyl-N^6-(5-methyl-1H-pyrazol-3-yl)pyrimidine-4,6-diamine]: the IC50 is ≤ 1000 nM at recombinant Aurora A (setting [2]), ≤ 100 nM in assay [1] (40 minutes at room temperature) and 1000 to 10000 nM in the assay on HCT116 cells.
With `Cc1cc(Nc2cc(N(C)CCN(C)C)nc(-c3ccccc3)n2)n[nH]1` [Compound 9, N^4-(2-(dimethylamino)ethyl)-N^4-methyl-N^6-(5-methyl-1H-pyrazol-3-yl)-2-phenylpyrimidine-4,6-diamine], the IC50 at recombinant Aurora A (setting [2]) is ≤ 1000 nM; in assay [1] (40 minutes at room temperature), ≤ 100 nM. In addition, in the assay on HCT116 cells, the GI50 was ≤ 1000 nM.
For the molecule `COc1cccc(-c2nc(Nc3cc(C)[nH]n3)cc(NC3CCOCC3)n2)c1` [Compound 29, 2-(3-methoxyphenyl)-N^4-(5-methyl-1H-pyrazol-3-yl)-N^6-(tetrahydro-2H-pyran-4-yl)pyrimidine-4,6-diamine], the results for the IC50 (on recombinant Aurora A; in assay [1] (40 minutes at room temperature); in the assay with HCT116 cells) were ≤ 100 nM, ≤ 100 nM and 1000 to 10000 nM, respectively.
Take `Cc1cc(Nc2cc(N3CCN(C)CC3)nc(-c3cccnc3)n2)n[nH]1` [Compound 89, N-(5-methyl-1H-pyrazol-3-yl)-6-(4-methylpiperazin-1-yl)-2-(pyridin-3-yl)pyrimidin-4-amine]: the IC50 on recombinant Aurora A is ≤ 100 nM; in assay [1] (setting [2]), ≤ 1000 nM; with HCT116 cells, 1000 to 10000 nM.
As to `COc1cccc(-c2nc(Nc3cc(C)[nH]n3)cc(N3CCN(C)CC3)n2)c1` [Compound 42, 2-(3-methoxyphenyl)-N-(5-methyl-1H-pyrazol-3-yl)-6-(4-methylpiperazin-1-yl)pyrimidin-4-amine], the IC50 (at recombinant Aurora A; in assay [1] (40 minutes at room temperature)) was ≤ 100 nM throughout. Besides, the GI50 in the assay with HCT116 cells is ≤ 1000 nM.
